Assays:
Experiment in all cases: Antimicrobial activity in formulation: colony counts over 28 days, synergy by Kull equation
Details in all cases: for Relative colony counts: relative to day 0; for Colony counts: counts <10 set to 10
S. aureus = format: cell-based, Staphylococcus aureus
Source text: (§1) Synergistic antimicrobial activity of lactate esters and other flavor and fragrance ingredients against different microorganisms relevant for cosmetics were investigated.
(§2) To calculate the synergism between lactate esters and other flavor and fragrance ingredients, the Kull equation^1,2 was used ^1 Kull, F. C., Eismann, P. C., Sylvestrowicz, H. D., and R. L. Mayer (1961). Mixtures of Quaternary Ammonium Compounds and Long-chain Fatty Acids as Antifungal Agents. Applied Microbiology 9, 538-541.^2 Steinberg, D. C. (2000). Measuring Synergy. Cosmetics & Toiletries 115 (11), 59-62. SI=(Cmixture×PA)/CA+(Cmixture×PB)/CB where • SI is the Synergy Index according to Kull^1), 2) • CA is the cell count for substance A • CB is the cell count for substance B • Cmixture is the cell count for the mixture of substances A and B • PA is the proportion of the substance A in the mixture • PB is the proportion of the substance B in the mixture.
(§3) Colony counts of <10 were arbitrarily set to 10, in order to allow for synergy calculations with the above equation. The abbreviation “n.a.” means not applicable.

A. brasiliensis = format: cell-based, Aspergillus brasiliensis
Source text: Synergistic antimicrobial activity of lactate esters and other flavor and fragrance ingredients against different microorganisms relevant for cosmetics were investigated. To calculate the synergism between lactate esters and other flavor and fragrance ingredients, the Kull equation^1,2 was used ^1 Kull, […]., and R. L. Mayer (1961). Mixtures of Quaternary Ammonium Compounds and Long-chain Fatty Acids as Antifungal Agents. Applied Microbiology 9, 538-541.^2 Steinberg, D. C. (2000). Measuring Synergy. Cosmetics & Toiletries 115 (11), 59-62. SI=(Cmixture×PA)/CA+(Cmixture×PB)/CB where • SI is the Synergy Index according to Kull^1), 2) • CA is the cell count for substance A • CB is the cell count for substance B • Cmixture is the cell count for the mixture of substances A and B • PA is the proportion of the substance A in the mixture • PB is the proportion of the substance B in the mixture. […] The abbreviation “n.a.” means not applicable.

E. coli = format: cell-based, Escherichia coli
Source text: as §1, §2, §3

C. albicans = format: cell-based, Candida albicans
Source text: as §1, §2, §3

In the case of `CC(O)C(=O)OCc1ccccc1` (stereo not shown) [BL, benzyl lactate], the Relative colony counts (S. aureus; 1%, day 0) is reported as 1.0000, the Colony counts (S. aureus; 1%, day 2) is reported as 1.600 cfu/g formulation and the Relative colony counts (S. aureus; 1%, day 2) is reported as 0.0006. The Colony counts (S. aureus; 1%, day 7) was 10 cfu/g formulation, the Relative colony counts (S. aureus; 1%, day 7) was 0.0000 and the Colony counts (S. aureus; 1%, day 14) was 10 cfu/g formulation. It also gave a Relative colony counts (S. aureus; 1%, day 14) of 0.0000, a Colony counts (S. aureus; 1%, day 28) of 10 cfu/g formulation and a Relative colony counts (S. aureus; 1%, day 28) of 0.0000. For the same compound, the Relative colony counts (A. brasiliensis; 1%, day 0) was 1.0000, the Colony counts (A. brasiliensis; 1%, day 2) was 270.000 cfu/g formulation and the Relative colony counts (A. brasiliensis; 1%, day 2) was 0.0931. For the same compound, the Colony counts (A. brasiliensis; 1%, day 7) was 4.500 cfu/g formulation, the Relative colony counts (A. brasiliensis; 1%, day 7) was 0.0016 and the Colony counts (A. brasiliensis; 1%, day 14) was 110 cfu/g formulation. For the same compound, the Relative colony counts (A. brasiliensis; 1%, day 14) was 0.0000, the Colony counts (A. brasiliensis; 1%, day 28) was 10 cfu/g formulation and the Relative colony counts (A. brasiliensis; 1%, day 28) was 0.0000.

With `COc1ccc(C(=O)O)cc1` [AAc, p-anisic acid] the Relative colony counts (E. coli; 0.5%, day 0) was 1.0000, the Colony counts (E. coli; 0.5%, day 2) was 140.000 cfu/g formulation and the Relative colony counts (E. coli; 0.5%, day 2) was 0.0609. For the same compound, the Colony counts (E. coli; 0.5%, day 7) was 15.000 cfu/g formulation, the Relative colony counts (E. coli; 0.5%, day 7) was 0.0065 and the Colony counts (E. coli; 0.5%, day 14) was 3.100 cfu/g formulation. For the same compound, the Relative colony counts (E. coli; 0.5%, day 14) was 0.0013, the Colony counts (E. coli; 0.5%, day 28) was 10 cfu/g formulation and the Relative colony counts (E. coli; 0.5%, day 28) was 0.0000. It also gave a Relative colony counts (S. aureus; 0.5%, day 0) of 1.0000, a Relative colony counts (S. aureus; 0.5%, day 2) of 0.8095 and a Colony counts (S. aureus; 0.5%, day 7) of 130 cfu/g formulation. The Relative colony counts (S. aureus; 0.5%, day 7) was 0.0001, the Colony counts (S. aureus; 0.5%, day 14) was 10 cfu/g formulation and the Relative colony counts (S. aureus; 0.5%, day 14) was 0.0000. The Colony counts (S. aureus; 0.5%, day 28) was 10 cfu/g formulation, the Relative colony counts (S. aureus; 0.5%, day 28) was 0.0000 and the Relative colony counts (A. brasiliensis; 0.5%, day 0) was 1.0000. The Relative colony counts (A. brasiliensis; 0.5%, day 2) was 0.3514, the Colony counts (A. brasiliensis; 0.5%, day 7) was 200.000 cfu/g formulation and the Relative colony counts (A. brasiliensis; 0.5%, day 7) was 0.0541. For the same compound, the Relative colony counts (A. brasiliensis; 0.5%, day 14) was 0.3243 and the Relative colony counts (A. brasiliensis; 0.5%, day 28) was 0.5676.

In the case of `CCCCCOC(=O)C(C)O` (stereo not shown) [AL, amyl lactate], the Relative colony counts (S. aureus; 1%, day 0) is reported as 1.0000, the Colony counts (S. aureus; 1%, day 2) is reported as 21.000 cfu/g formulation and the Relative colony counts (S. aureus; 1%, day 2) is reported as 0.0072. The Colony counts (S. aureus; 1%, day 7) was 15 cfu/g formulation, the Relative colony counts (S. aureus; 1%, day 7) was 0.0000 and the Colony counts (S. aureus; 1%, day 14) was 10 cfu/g formulation. For the same compound, the Relative colony counts (S. aureus; 1%, day 14) was 0.0000, the Colony counts (S. aureus; 1%, day 28) was 10 cfu/g formulation and the Relative colony counts (S. aureus; 1%, day 28) was 0.0000. The Relative colony counts (A. brasiliensis; 1%, day 0) was 1.0000, the Colony counts (A. brasiliensis; 1%, day 2) was 160.000 cfu/g formulation and the Relative colony counts (A. brasiliensis; 1%, day 2) was 0.0552. The Relative colony counts (A. brasiliensis; 1%, day 7) was 0.4828, the Colony counts (A. brasiliensis; 1%, day 14) was 320.000 cfu/g formulation and the Relative colony counts (A. brasiliensis; 1%, day 14) was 0.1103. The Colony counts (A. brasiliensis; 1%, day 28) was 660 cfu/g formulation and the Relative colony counts (A. brasiliensis; 1%, day 28) was 0.0002.

`CCCCOC(=O)C(C)O` (stereo not shown) [BuL, butyl lactate] showed a Relative colony counts (E. coli; 1.25%, day 0) of 1.0000, a Colony counts (E. coli; 1.25%, day 2) of 13.000 cfu/g formulation and a Relative colony counts (E. coli; 1.25%, day 2) of 0.0041. It also gave a Colony counts (E. coli; 1.25%, day 7) of 10 cfu/g formulation, a Relative colony counts (E. coli; 1.25%, day 7) of 0.0000 and a Colony counts (E. coli; 1.25%, day 14) of 10 cfu/g formulation. It also gave a Relative colony counts (E. coli; 1.25%, day 14) of 0.0000, a Colony counts (E. coli; 1.25%, day 28) of 10 cfu/g formulation and a Relative colony counts (E. coli; 1.25%, day 28) of 0.0000. The Relative colony counts (C. albicans; 1.25%, day 0) was 1.0000, the Colony counts (C. albicans; 1.25%, day 2) was 740.000 cfu/g formulation and the Relative colony counts (C. albicans; 1.25%, day 2) was 0.3083. The Colony counts (C. albicans; 1.25%, day 7) was 430 cfu/g formulation, the Relative colony counts (C. albicans; 1.25%, day 7) was 0.0002 and the Colony counts (C. albicans; 1.25%, day 14) was 10 cfu/g formulation. For the same compound, the Relative colony counts (C. albicans; 1.25%, day 14) was 0.0000, the Colony counts (C. albicans; 1.25%, day 28) was 10 cfu/g formulation and the Relative colony counts (C. albicans; 1.25%, day 28) was 0.0000. For the same compound, the Relative colony counts (A. brasiliensis; 1.25%, day 0) was 1.0000, the Colony counts (A. brasiliensis; 1.25%, day 2) was 730.000 cfu/g formulation and the Relative colony counts (A. brasiliensis; 1.25%, day 2) was 0.2517. It also gave a Relative colony counts (A. brasiliensis; 1.25%, day 7) of 0.5517, a Relative colony counts (A. brasiliensis; 1.25%, day 14) of 0.3793 and a Colony counts (A. brasiliensis; 1.25%, day 28) of 150.000 cfu/g formulation. For the same compound, the Relative colony counts (A. brasiliensis; 1.25%, day 28) was 0.0517.

In the case of `OCCCc1ccccc1` [PP, 3-phenylpropanol], the Relative colony counts (C. albicans; 0.5%, day 0) is reported as 1.0000, the Relative colony counts (C. albicans; 0.5%, day 2) is reported as 0.4583 and the Colony counts (C. albicans; 0.5%, day 7) is reported as 930.000 cfu/g formulation. It also gave a Relative colony counts (C. albicans; 0.5%, day 7) of 0.3875, a Colony counts (C. albicans; 0.5%, day 14) of 31.000 cfu/g formulation and a Relative colony counts (C. albicans; 0.5%, day 14) of 0.0129. For the same compound, the Colony counts (C. albicans; 0.5%, day 28) was 10 cfu/g formulation, the Relative colony counts (C. albicans; 0.5%, day 28) was 0.0000 and the Relative colony counts (S. aureus; 0.5%, day 0) was 1.0000. For the same compound, the Colony counts (S. aureus; 0.5%, day 2) was 23.000 cfu/g formulation, the Relative colony counts (S. aureus; 0.5%, day 2) was 0.0079 and the Colony counts (S. aureus; 0.5%, day 7) was 80 cfu/g formulation. For the same compound, the Relative colony counts (S. aureus; 0.5%, day 7) was 0.0000, the Colony counts (S. aureus; 0.5%, day 14) was 10 cfu/g formulation and the Relative colony counts (S. aureus; 0.5%, day 14) was 0.0000. It also gave a Colony counts (S. aureus; 0.5%, day 28) of 10 cfu/g formulation and a Relative colony counts (S. aureus; 0.5%, day 28) of 0.0000.

Compound `COc1ccc(C=O)cc1` [AAld, p-anisic aldehyde] has a Relative colony counts (A. brasiliensis; 0.5%, day 0) of 1.0000, a Colony counts (A. brasiliensis; 0.5%, day 2) of 560.000 cfu/g formulation and a Relative colony counts (A. brasiliensis; 0.5%, day 2) of 0.1931. The Colony counts (A. brasiliensis; 0.5%, day 7) was 140.000 cfu/g formulation, the Relative colony counts (A. brasiliensis; 0.5%, day 7) was 0.0483 and the Colony counts (A. brasiliensis; 0.5%, day 14) was 2.100 cfu/g formulation. It also gave a Relative colony counts (A. brasiliensis; 0.5%, day 14) of 0.0007, a Colony counts (A. brasiliensis; 0.5%, day 28) of 15 cfu/g formulation and a Relative colony counts (A. brasiliensis; 0.5%, day 28) of 0.0000.
